From PMC4890880 (ACS infectious diseases, 2016)
Where two headings read alike, the source gives them in different places.

Experiments:
[1] = system: Plasmodium berghei (Pb-Luc) exoerythrocytic-stage parasites; test: microbe, parasite or virus in culture; settings: for inhibition at 10 µM: read-out: PbLuc max inhibition (%) @ 10 uM
[2] = system: Pb-Luc exoerythrocytic-stage parasites in Huh7.5.1 cells; test: Pb-Luc time of action assay (modified 384-well luciferase assay); settings: Plasmodium berghei
[3] = system: P. falciparum 3D7 parasites; test: Asexual erythrocytic-stage SYBR Green I proliferation assay, 1536-well; format: cell-based, Plasmodium falciparum; settings: Plasmodium falciparum, 3D7, read-out: P. falciparum (blood) IC50, Table S1, validation set of 50 antimalarials
[4] = system: Plasmodium berghei (Pb-Luc) exoerythrocytic-stage parasites
[5] = biological target: T1, Plasmodium DHODH enzyme (Plasmodium falciparum, UniProt Q08210); test: DHODH assay; settings: data not shown
T1 sequence (Q08210 24-569): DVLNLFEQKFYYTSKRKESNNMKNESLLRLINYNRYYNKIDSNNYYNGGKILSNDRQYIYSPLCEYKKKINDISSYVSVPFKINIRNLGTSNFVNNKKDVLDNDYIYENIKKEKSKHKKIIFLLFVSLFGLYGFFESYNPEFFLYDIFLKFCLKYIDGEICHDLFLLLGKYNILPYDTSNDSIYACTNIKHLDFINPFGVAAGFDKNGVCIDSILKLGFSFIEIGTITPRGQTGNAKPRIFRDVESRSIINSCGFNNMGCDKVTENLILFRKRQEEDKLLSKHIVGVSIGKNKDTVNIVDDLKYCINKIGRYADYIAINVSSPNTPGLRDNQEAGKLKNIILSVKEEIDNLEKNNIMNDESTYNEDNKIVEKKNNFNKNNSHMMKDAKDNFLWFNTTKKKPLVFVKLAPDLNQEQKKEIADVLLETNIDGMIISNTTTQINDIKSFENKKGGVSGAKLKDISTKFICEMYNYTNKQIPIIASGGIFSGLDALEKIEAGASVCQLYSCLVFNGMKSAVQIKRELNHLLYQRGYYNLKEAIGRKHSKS

[6] = system: HepG2-A16-CD81EGFP cells
[7] = system: P. falciparum Dd2 erythrocytic stage; test: Dd2 erythrocytic-stage assay (SYBR Green) for DOS compounds; settings: for IC50: read-out: Erythrocytic-stage (Pf Dd2) IC50, Figure 4b
[8] = system: HepG2-A16-CD81EGFP cells; test: cells; settings: Homo sapiens; for IC50: HepG2, read-out: Tox IC50; for inhibition at 10 µM: HepG2, read-out: Tox max inhibition (%) @ 10 uM
[9] = system: Plasmodium cynomolgi exoerythrocytic-stage small (hypnozoites) and large (liver stage schizonts) parasites; test: P. cynomolgi liver assay in primary hepatocytes; settings: Plasmodium cynomolgi, Hepatocyte
[10] = biological target: QuantiLum Recombinant Luciferase (Photinus pyralis, UniProt P08659); test: Bioluminescence quantification of compound luciferase inhibition; settings: for Emax: read-out: LucInhib max inhibition
[11] = read-out: P. berghei (liver) IC50, Table S1, validation set of 50 antimalarials, Pb-Luc
[12] = Huh-7.5.1, read-out: Pb-Luc IC50, Treatment: 1
[13] = Huh-7.5.1, read-out: Pb-Luc IC50, Treatment: 2
[14] = Huh-7.5.1, read-out: Pb-Luc IC50, Treatment: 3
[15] = Huh-7.5.1, read-out: Pb-Luc IC50, Treatment: 4
[16] = Huh-7.5.1, read-out: Pb-Luc IC50, Treatment: 5
[17] = Huh-7.5.1, read-out: Pb-Luc IC50, Treatment: 6
[18] = read-out: Exoerythrocytic-stage Pb-Luc IC50, Figure 4b, first assay
[19] = read-out: Exoerythrocytic-stage Pb-Luc IC50, Figure 4b, second assay (value in parentheses)
[20] = HepG2, read-out: HepG2 Tox% @ 50 uM rep1
[21] = HepG2, read-out: HepG2 Tox% @ 50 uM rep2
[22] = read-out: % inhibition normalized to untreated control, Large
[23] = read-out: % inhibition normalized to untreated control, Small
[24] = read-out: Inhibition% @ 50 uM rep1
[25] = read-out: Inhibition% @ 50 uM rep2
[26] = read-out: PbLuc IC50, dose response, 1/3 dilutions, max conc. 10 or 50 uM, unit inferred

QuantiLum Recombinant Luciferase, sequence (P08659 whole entry): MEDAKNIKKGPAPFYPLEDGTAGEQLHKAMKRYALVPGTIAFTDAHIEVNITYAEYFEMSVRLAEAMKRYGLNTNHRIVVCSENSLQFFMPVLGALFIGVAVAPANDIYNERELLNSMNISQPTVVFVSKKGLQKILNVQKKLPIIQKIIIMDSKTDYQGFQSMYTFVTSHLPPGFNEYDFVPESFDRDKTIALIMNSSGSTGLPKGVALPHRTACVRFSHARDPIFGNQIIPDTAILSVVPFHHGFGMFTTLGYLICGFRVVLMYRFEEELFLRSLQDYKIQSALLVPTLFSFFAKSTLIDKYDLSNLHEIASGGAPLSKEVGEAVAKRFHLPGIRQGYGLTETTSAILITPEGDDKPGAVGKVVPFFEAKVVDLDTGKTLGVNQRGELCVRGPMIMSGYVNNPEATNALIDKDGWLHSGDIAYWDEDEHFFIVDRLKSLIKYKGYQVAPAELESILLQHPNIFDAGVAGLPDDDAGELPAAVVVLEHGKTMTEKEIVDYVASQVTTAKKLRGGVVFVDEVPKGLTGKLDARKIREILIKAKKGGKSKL

Question: What does the source list for `O=C1C(O)=C([C@H]2CC[C@H](c3ccc(Cl)cc3)CC2)C(=O)c2ccccc21` [Atovaquone, reference compound]?
Answer: IC50 [1, 11]: 0.25 nM; IC50 [2, 12]: 34 nM; IC50 [2, 13]: 2.8 nM; IC50 [2, 14]: 7.9 nM; IC50 [2, 15]: 1.6 nM; IC50 [2, 16]: 1.1 nM; IC50 [2, 17]: 0.9 nM; IC50 [3]: < 0.4 nM

Question: For `CS(=O)(=O)N1[C@H](C#N)[C@H](c2ccc(C#Cc3cccc(F)c3)cc2)[C@H]1CO` [BRD0326], which IC50 [4, 18] is on record?
Answer: 300 nM

Question: What about the IC50 [4, 19] of the same compound?
Answer: 150 nM

Question: And the IC50 ([4]; read-out: Pb-Luc IC50, Figure 4a, stereoisomers tested in dose response)?
Answer: 152 nM

Question: What about the IC50 ([4]; read-out: Pb-Luc IC50, Figure 4a, stereoisomers tested in dose response, listed as BRD0326 SSS) of the same compound?
Answer: < 1000 nM

Question: What about the “activity in a DHODH assay” value [5] of the same compound?
Answer: inactive

Question: And the CC50 [6]?
Answer: > 10000 nM

Question: And the erythrocytic-stage activity ([7]; in words)?
Answer: no erythrocytic-stage activity

Question: And the IC50 [7]?
Answer: > 10000 nM

Question: Which results are given for `CCCNC(=O)N1[C@H](C#N)[C@H](c2ccc(C#Cc3cccc(F)c3)cc2)[C@H]1CO` [BRD7539]?
Answer: IC50 [4, 19]: 2 nM; IC50 ([4]; read-out: Pb-Luc IC50, Figure 4a, stereoisomers tested in dose response, listed as BRD9781/7539 series SSS): 2 nM; IC50 [7]: 10 nM

Question: For `CCCNC(=O)N1[C@H](CO)[C@H](c2ccc(C#Cc3cccc(F)c3)cc2)[C@@H]1C#N` [BRD9781], which IC50 [4, 18] is on record?
Answer: 80 nM

Question: And the IC50 [4, 19]?
Answer: 40 nM

Question: What about the IC50 ([4]; read-out: Pb-Luc IC50, Figure 4a, stereoisomers tested in dose response, listed as BRD9781/7539 series SRR) of the same compound?
Answer: 39 nM

Question: What about the “activity in a DHODH assay” value [5] of the same compound?
Answer: inactive

Question: And the IC50 [7]?
Answer: 8550 nM

Question: For `O=C(Nc1cccc(F)c1)N1CCCCN2[C@H](CO)[C@@H](c3ccc(C#Cc4cccnc4)cc3)[C@@H]2C1` [BRD47390], which IC50 [4, 18] is on record?
Answer: 360 nM

Question: What about the IC50 [4, 19] of the same compound?
Answer: 230 nM

Question: What about the CC50 [6] of the same compound?
Answer: > 10000 nM

Question: And the IC50 [7]?
Answer: 2580 nM

Question: What does the source list for `O=C(NCCN1CCCC1)c1cc(-c2ccc(CN3CCOCC3)cc2)nc2ccc(F)cc12` [DDD107498, reference compound]?
Answer: IC50 [2, 12]: 2.2 nM; IC50 [2, 13]: 1.6 nM; IC50 [2, 14]: 0.8 nM; IC50 [2, 15]: 1.1 nM; IC50 [2, 16]: 0.9 nM; IC50 [2, 17]: 0.7 nM

Question: What does the source list for `Cc1ccc(N2C3c4ccccc4N(S(=O)(=O)c4ccc(C)cc4)C2c2ccccc2N3S(=O)(=O)c2ccc(C)cc2)cc1` [MMV007160]?
Answer: cytotoxicity at 50 µM [8, 20]: -4.53%; cytotoxicity at 50 µM [8, 21]: -10%; IC50 [8]: > 10000 nM; inhibition at 10 µM [8]: 10%; inhibition at 0.1 µM [9, 22]: 17%; inhibition at 1 µM [9, 22]: 14%; inhibition at 10 µM [9, 22]: 0%; inhibition at 0.1 µM [9, 23]: 17%; inhibition at 1 µM [9, 23]: -25%; inhibition at 10 µM [9, 23]: -11%; inhibition at 50 µM [1, 24]: 103%; inhibition at 50 µM [1, 25]: 105%; IC50 [1, 26]: 36.7 nM; inhibition at 10 µM [1]: 110%; IC50 [2, 12]: 792 nM; IC50 [2, 13]: 285 nM; IC50 [2, 14]: 2880 nM; IC50 [2, 15]: 177 nM; IC50 [2, 16]: 198 nM; IC50 [2, 17]: 179 nM; IC50 [10]: > 20000 nM; Emax [10]: 14%

Question: `COc1ccccc1CNC(=O)CCn1c(=O)[nH]c2ccccc2c1=O` [MMV665916] was tested. Which cytotoxicity at 50 µM [8, 20] did it give?
Answer: -21%

Question: What about the cytotoxicity at 50 µM [8, 21] of the same compound?
Answer: -23%

Question: And the IC50 [8]?
Answer: > 10000 nM

Question: What about the inhibition at 10 µM [8] of the same compound?
Answer: -2.14%

Question: What about the inhibition at 0.1 µM [9, 22] of the same compound?
Answer: 6%

Question: What about the inhibition at 1 µM [9, 22] of the same compound?
Answer: 2%

Question: What about the inhibition at 10 µM [9, 22] of the same compound?
Answer: -13%

Question: What about the inhibition at 0.1 µM [9, 23] of the same compound?
Answer: 20%

Question: And the inhibition at 1 µM [9, 23]?
Answer: -13%

Question: And the inhibition at 10 µM [9, 23]?
Answer: -15%

Question: What about the inhibition at 50 µM [1, 24] of the same compound?
Answer: 99%

Question: What about the inhibition at 50 µM [1, 25] of the same compound?
Answer: 99%

Question: What about the IC50 [1, 26] of the same compound?
Answer: 44.3 nM

Question: What about the inhibition at 10 µM [1] of the same compound?
Answer: 100%

Question: What about the IC50 [2, 12] of the same compound?
Answer: 5730 nM

Question: What about the IC50 [2, 13] of the same compound?
Answer: 5780 nM

Question: And the IC50 [2, 14]?
Answer: 8160 nM

Question: What about the IC50 [2, 15] of the same compound?
Answer: 4290 nM

Question: What about the IC50 [2, 16] of the same compound?
Answer: 786 nM

Question: What about the IC50 [2, 17] of the same compound?
Answer: 370 nM

Question: What about the IC50 [10] of the same compound?
Answer: > 20000 nM

Question: What about the Emax [10] of the same compound?
Answer: 15%

Question: What does the source list for `CC(C)(N)CNC(=O)C[C@H]1CC[C@]2(CC1)OO[C@]1(O2)C2CC3CC(C2)CC1C3` [OZ277, reference compound]?
Answer: IC50 [1, 11]: 1640 nM; IC50 [3]: 2.3 nM

Question: For `c1cc([C@H]2CC[C@]3(CC2)OO[C@]2(O3)C3CC4CC(C3)CC2C4)ccc1OCCN1CCOCC1` [OZ439, reference compound], which IC50 [1, 11] is on record?
Answer: 5240 nM

Question: And the IC50 [3]?
Answer: 2.8 nM

Question: With `CCN(CC)CCCC(C)Nc1cc(OC)cc2cccnc12` (centres unmarked) [Pamaquine, reference compound] as the compound, how does the IC50 [1, 11] read?
Answer: > 12500 nM

Question: What about the IC50 [3] of the same compound?
Answer: > 10000 nM

Question: How did the IC50 [1, 11] turn out when `N=C(N)c1ccc(OCCCCCOc2ccc(C(=N)N)cc2)cc1` [Pentamidine, reference compound] was run?
Answer: 286 nM

Question: And the IC50 [3]?
Answer: 0.5 nM
